From patent EP0061283A1, “Antiviral agents, their preparation and use” (BEECHAM GROUP PLC, priority 1981, dated 1982)
Where “and” joins values, the source holds several entries; their conditions need not be identical. Equal values may be shown once.

Columns and labels:
[1] = system: Herpes simplex type 1 virus (HFEM strain); assay: Plaque reduction test in virus-infected Vero cell monolayers; format: cell-based; conditions: Human alphaherpesvirus 1, 144 h, concentration causing a 50% reduction in the number of virus plaques, Vero cells, 37°C for 6 days, read-out: PDD50 (the source's name)
Method: (§1) Vero (African Green Monkey Kidney) cells were grown to confluence in 6 well multidishes, each well being 3.5 cm in diameter. The cells were incubated with Herpes simplex type 1 virus (HFEM strain) and overlaid with 0.5 ml of 0.9% agarose (w/v) in maintenance medium containing the test compound at a range of concentrations from 50 µg/ml in half-log dilution steps. The virus infected cultures were then incubated at 37°C for 6 days before fixing in 4% formaldehyde solution and staining with carbolfuchsin. The dishes were then examined to find what concentration of test compound causing a 50% reduction in the number of virus plaques formed (PDD50 value) and the minimum concentration of test compound which killed the cell monolayer, leaving a clear zone devoid of cells and virus plaques (MTD).

[2] = Minimum concentration killing the cell monolayer (MTD) in the plaque reduction test; format: cell-based, African Green Monkey; conditions: monkey; minimum concentration which killed the cell monolayer; Vero cells, 37°C for 6 days
Method: as §1

| IC50 [1] | Compound | MCC at 144 h [2] [µg/mL] |
| --- | --- | --- |
| 0.2 µg/mL and 400 nM | CCCCC(=O)OC[C@H]1O[C@@H](n2cc(/C=C/Br)c(=O)[nH]c2=O)C[C@@H]1OC(=O)CCCC [Example 2, E-5-(2-Bromovinyl)-3',5'-di-O-valeryl-2'-deoxyuridine] | > 100 |
| 8.5 µg/mL and 17 µM | CC(C)(C)C(=O)OC[C@H]1O[C@@H](n2cc(/C=C/Br)c(=O)[nH]c2=O)C[C@@H]1OC(=O)C(C)(C)C [Example 14, E-5-(2-bromovinyl)-3',5'-di-0-pivaloyl-2'-deoxyuridine] | > 100 |
| 0.41 µg/mL and 1.1 µM | CC(=O)O[C@H]1C[C@H](n2cc(/C=C/Br)c(=O)[nH]c2=O)O[C@@H]1CO [Example 6, 3'-O-Acetyl-E-5-(2-bromovinyl)-2'-deoxyuridine] | > 100 |
| 0.52 µg/mL and 1.3 µM | CC(C)(C)C(=O)OC[C@H]1O[C@@H](n2cc(/C=C/Br)c(=O)[nH]c2=O)C[C@@H]1O [Example 13, E-5-(2-Bromoyinyl)-5'-O-pivaloyl-2'-deoxyuridine] | > 100 |
| 0.18 µg/mL and 400 nM | O=C(O)CCC(=O)O[C@H]1C[C@H](n2cc(/C=C/Br)c(=O)[nH]c2=O)O[C@@H]1CO [Example 11b, E-5-(2-bromovinyl)-3'-O-(3-carboxypropionyl)-2'-deoxyuridine] | > 100 |
| 0.35 µg/mL and 800 nM | O=C(O)CCC(=O)OC[C@H]1O[C@@H](n2cc(/C=C/Br)c(=O)[nH]c2=O)C[C@@H]1O [Example 12, E-5-(2-bromovinyl)-5'-O-(3-carboxypropionyl)-2'-deoxyuridine] | > 100 |
| 0.16 µg/mL and 380 nM | CCCCC(=O)OC[C@H]1O[C@@H](n2cc(/C=C/Br)c(=O)[nH]c2=O)C[C@@H]1O [Example 9, E-5-(2-Bromovinyl)-5'-O-valeryl-2'-deoxyuridine] | > 100 |
| 0.32 µg/mL and 850 nM | CC(=O)OC[C@H]1O[C@@H](n2cc(/C=C/Br)c(=O)[nH]c2=O)C[C@@H]1O [Example 8, 5'-O-Acetyl-E-5-(2-bromovinyl)-2'-deoxyuridine] | > 100 |
| 0.2 µg/mL and 420 nM | CCCC(=O)OC[C@H]1O[C@@H](n2cc(/C=C/Br)c(=O)[nH]c2=O)C[C@@H]1OC(=O)CCC [Example 1, E-5-(2-Bromovinyl)-3',5'-di-O-butyryl-2'-deoxyuridine] | > 100 |
| 55 µg/mL and 103 µM | O=C(O)CCC(=O)OC[C@H]1O[C@@H](n2cc(/C=C/Br)c(=O)[nH]c2=O)C[C@@H]1OC(=O)CCC(=O)O [Example 10, E-5-(2-Bromovinyl)-3'.5'-di-O-(3-carboxypropionyl)-2'-deoxyuridine monohydrate] | > 100 |
| 0.18 µg/mL and 430 nM | CCCCC(=O)O[C@H]1C[C@H](n2cc(/C=C/Br)c(=O)[nH]c2=O)O[C@@H]1CO [Example 7, E-5-(2-Bromovinyl)-3'-O-valeryl-2'-deoxyuridine] | > 100 |
